# Source: US6391897B2, “Biphenyl oxo-acetic acids useful in the treatment of insulin resistance and hyperglycemia” (American Home Products Corporation, priority 1998, dated 2002)
# Read-outs that look alike come from different tables or passages of the source.
# What was measured:
# diabetic (ob/ob) mice = assay: Blood glucose lowering in diabetic (ob/ob) mice; type: in vivo; details: Mus musculus, po
# Human recombinant PTP1B = target: T1, Human recombinant PTP1B (Homo sapiens, UniProt P18031); assay: Inhibition of tri-phosphorylated insulin receptor dodecaphosphopeptide dephosphorylation by hPTP1B (malachite green); type: biochemical; details: compound at 2.5 uM
# T1 construct: made in house
# T1 sequence (P18031 1-435): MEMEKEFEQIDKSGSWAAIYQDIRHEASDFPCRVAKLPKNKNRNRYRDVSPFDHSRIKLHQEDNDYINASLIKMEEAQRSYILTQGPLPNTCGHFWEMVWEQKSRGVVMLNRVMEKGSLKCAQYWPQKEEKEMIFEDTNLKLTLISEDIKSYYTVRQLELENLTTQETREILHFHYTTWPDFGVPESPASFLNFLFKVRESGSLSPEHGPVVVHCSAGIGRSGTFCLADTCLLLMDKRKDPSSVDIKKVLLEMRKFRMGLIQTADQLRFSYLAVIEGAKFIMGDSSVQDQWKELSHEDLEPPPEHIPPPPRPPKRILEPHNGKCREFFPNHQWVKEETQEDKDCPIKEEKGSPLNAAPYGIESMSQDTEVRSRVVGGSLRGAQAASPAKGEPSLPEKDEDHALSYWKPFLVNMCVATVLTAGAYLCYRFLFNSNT
# [1] = read-out: % Change Insulin from Vehicle
Compound,"change in vivo at 100 mg/kg (diabetic (ob/ob) mice; 96 h, plasma glucose on Day 4, 7 or 14, read-out: % Change Glucose from Vehicle)",change in vivo at 100 mg/kg (diabetic (ob/ob) mice; [1]),percent of phosphatase control (change) at 2.5 uM (Human recombinant PTP1B)
"CC1(COc2ccc(CC3SC(=O)NC3=O)cc2)CCCCC1 (centres unmarked) [Ciglitazone, 5-(4-(1-methylcyclohexylmethoxy)benzyl)-2,4-dione]",-43%,-39%,
"O=C(O)COc1ccc(-c2ccc(-c3c(Br)oc4ccccc34)cc2)cc1 [Example 6, [4′-(2-Bromo-benzofuran-3-yl)-biphenyl-4-yloxy]-acetic acid]",,,−15 (2.5 uM) %
"O=C(O)C(Cc1ccccc1)Oc1ccc(-c2ccc(-c3c(Br)oc4ccccc34)cc2)cc1 (centres unmarked) [Example 7, 2-[4′-(2-Bromo-benzofuran-3-yl)-biphenyl-4-yloxy]-3-phenyl-propionic acid]",,,−58 (2.5 uM) %
"O=C(c1ccccc1)c1oc2ccccc2c1-c1ccc(-c2ccc(OC(Cc3ccccc3)C(=O)O)cc2)cc1 (centres unmarked) [Example 14, 2-[4′-(2-Benzoyl-benzofuran-3-yl)-biphenyl-4-yloxy]-3-phenyl-propionic acid]",,19.8%,
"COC(=O)[C@H](Cc1ccccc1)Oc1ccc(-c2ccc(-c3c(Cc4ccccc4)oc4ccccc34)cc2)cc1 [Example 23, (2S)-2-[4′-(2-Benzyl-benzofuran-3-yl)-biphenyl-4-yloxy]-3-phenyl-propionic acid methyl ester]",,,−36 (2.5 uM) %
"O=C(O)[C@H](Cc1ccccc1)Oc1ccc(-c2ccc(-c3nc4ccccc4n3Cc3ccccc3)cc2)cc1 [Example 70, (2S)-2-[4′-(1-Benzyl-1H-benzimidazol-2-yl)-biphenyl-4-yloxy]-3-phenyl-propionic acid]",,,−41 (2.5 uM) %
"CC(=O)c1ccc(-c2ccc(-c3ccc(O[C@@H](Cc4ccccc4)C(=O)[O-])cc3)cc2)s1.[Na+] [Example 71, (2S)-2-[4′-(5-acetyl-thiophen-2-yl)-biphenyl-4-yloxy]-3-phenyl-propionic acid sodium salt]",,,−43 (2.5 uM) %
